Drawing on a melting point compilation (Tetko et al.; mined from patent text by program, amines drawn as free bases though some values may be those of a salt), this text covers melting point for 87 compounds.

The melting point is the temperature, or range, at which the solid turns liquid.

Regarding `Oc1ccc(-c2ccc(O)cc2C#Cc2ccccc2)c(C#Cc2ccccc2)c1`, the melting point is 187 °C. For `CNC(=O)[C@H]1CN(c2ccc3c(c2)oc(=O)n3C)C(=O)O1` the value was 304 to 306 °C; for `CC(C)c1cc(Br)c(C(C)C)cc1S`, 72 to 75 °C. `O=C(N[C@H](Cc1cccc(OC(F)(F)C(F)F)c1)[C@@H](O)c1cccc(F)n1)c1cccc2c1C=CCCC2` (racemic) registered a melting point of 151 to 152 °C. For `Cc1ccc(CN2CCN(C3=NC4(C=CC(=O)C(Cl)=C4)C(c4ccccc4)=C3)CC2)cc1` (configuration not stated) the value was 161 °C; for `CCN(CC)C1=NC(=O)C(=Cc2cccc(-c3ccc(O)c(C45CC6CC(CC(C6)C4)C5)c3)c2)S1`, 275 to 277 °C; for `O=C(NCc1ccc(C=NO)cc1Cl)C1CC1`, 163 to 166 °C.

For `O=c1cc(-c2ccccc2)oc2c(C=S)cccc12`, the melting point was in the range of 153 to 157 °C. As for `CCCc1cccc(-c2nc(C(C)C)n(C)n2)n1`, the figure is 48.6 °C; as for `Cn1ccnc1Sc1ccc(Nc2c(C#N)cnc3cc(/C=C/CCCN4CCCC4)ccc23)cc1Cl`, 217 to 222 °C. The compound `COC(=O)c1ccc2c(c1)CN(c1c(F)cc3c(=O)c(C(=O)O)cn4c3c1OCC4C)C2` (configuration not stated) yielded a melting point of 257 to 262 °C. For `O=C1NC(=O)c2c1c(-c1ccccc1)cc1[nH]c3ccccc3c21`, the melting point was in the range of 262 to 264 °C. For `C=CCOc1nc(N)nc(-c2ccccc2)c1-c1ccc(=O)n(C(C)C)n1` the value was 130 to 132 °C; for `O=C(C1CCCCCC1)N1c2ccccc2CCC1CN1CCN(c2cccc3[nH]ccc23)CC1` (configuration not stated), 167 to 173 °C; for `O=C1c2ccc(Cl)cc2CC1Sc1ccccc1` (configuration not stated), 89 °C. As for `c1cc(-c2ccc(N3CCNCC3)nc2)nc(Nc2ccc3[nH]nnc3c2)n1`, the figure is 280 to 283 °C. For `O=c1[nH]c(Nc2cccc(C(F)(F)F)c2)nc2c1ncn2CCO` the value was 347 to 349 °C; for `CCC1c2cccn2-c2ccccc2N1S(=O)(=O)c1ccc(O)c(C)c1` (configuration not stated), 171 to 173 °C; for `Cc1cc(C2=NN[C@H](C)Cc3cc4c(cc32)OCO4)ccc1N`, 193 to 196 °C.

For the compound `NS(=O)(=O)c1cc(C(=O)O)cc(N2CCCC2)c1Oc1ccccc1`, the melting point lay within 214 to 217 °C. As for `Cc1cnc(-c2cc(F)ccc2CNC(=O)c2nc3n(c(=O)c2OCc2ccccc2)CCOC3(C)C)o1`, the figure is 186 °C; as for `CCN(CC)c1ccc(C(F)(F)F)cc1NC(=O)c1ccncc1`, 78 to 80 °C; as for `O=[N+]([O-])c1cc(Cl)c(Oc2cc(Cl)c(Br)cc2Cl)cc1Oc1ccccc1`, 85 °C. For `Nc1ccc(S)c(C(F)(F)F)c1` the value was 35 to 36.5 °C; for `CC(C)N(C)CCOc1ccc(-n2ccc(OCc3ccc(Cl)cn3)cc2=O)cc1`, 137 to 138 °C. As for `Nc1ccccc1NC(=O)c1cc2cc(OCCO)ccc2[nH]1`, the figure is 222 to 223 °C; as for `CCOC(=O)c1sc(Oc2ccc(O)cc2)c2c1CCc1cnn(C)c1-2`, 245 to 246 °C.

Consider `COc1cccc2c(Nc3ccc(C(=O)NC4CCN(Cc5ccccc5)CC4)cc3)c(C(=O)NC3CCN(C)CC3)cnc12`, for which the melting point was in the range of 230 to 232 °C. As for `O=C(Nc1cc(Cl)cc(Cl)c1)c1cc(Br)cc(Br)c1O`, the figure is 181 to 182 °C.

In the case of `CC(C)(C)OC(=O)N1CCN(CC(=O)Nc2ccc(CC#N)cc2)CC1`, the melting point lay within 137 to 138 °C. As for `CCOC(=O)CCc1ccc(C(=O)c2ccc(Cl)cc2)n1C`, the figure is 71.5 to 73 °C. As for `Cc1cc(C)c2c(=O)c(N)coc2c1`, the figure is 120 to 121 °C. As for `C=CCCn1ncc2c(N)c(C(=O)OCC=C)c(C)nc21`, the figure is 64 to 64.5 °C; as for `CSc1ccc(-c2nn(CC3CC3)c(=O)cc2-c2ccc(Cl)cc2)cc1`, 142 to 143 °C; as for `CCOC(=O)c1ccc(-c2ccsc2)nc1C(=O)OCC`, 100 to 102 °C.

In the case of `CCCc1ccc2oc(C(=O)c3ccncc3)c(C)c2c1O`, the melting point is 203 to 205 °C. As for `CN(C)Cc1cn(CCC(=O)O)c(=S)n1C1CCc2ccccc2C1` (configuration not stated), the figure is 171 to 174 °C. As for `COc1ccc(C(C#N)=Cc2ccc(OC)c(OC3CCCC3)c2)cc1`, the figure is 102 to 105 °C; as for `COc1c(Br)c(-c2cc(C(C)C)n(C)n2)cc2oc(=O)c(C)c(C)c12`, 177 to 179 °C; as for `CC(C)n1nc2c(F)cccc2c1-c1ccc(O)cc1O`, > 160 °C.

With `O=C1N(C(c2ccccc2)c2ccccc2)c2ccccc2C1(O)c1cc2c(cc1O)OCCC2` (configuration not stated), the melting point lay within 204 to 206 °C. As for `O=C1C(CCO)Oc2ccccc2N1Cc1cc(Cl)cc(Cl)c1` (configuration not stated), the figure is 104 to 106 °C. As for `CO/C(=C\c1ccc(OCCc2nc(-c3ccccc3)oc2C)c2ccsc12)C(=O)O`, the figure is 189 to 190 °C; as for `N#Cc1ccc(S(=O)(=O)Nc2cccnc2Nc2ccccc2)cc1`, 155 to 157 °C; as for `C=CCCC[C@H]1CC[C@H](c2ccc(C(C)=O)cc2)CC1`, 47.6 °C. For `Cc1nc(-n2cnn(CC3CC3(F)F)c2=O)sc1C(N)=O` (configuration not stated) the value was 273 to 275 °C. In the case of `CCCCCC(=O)Nc1nc2c(ncn2CCC(CO)CO)c(=O)[nH]1`, the melting point lay in the range of 86 to 88 °C. For `O=C(c1ccccc1)c1cccc(NC(=O)c2ccn3c2CSC3c2cccnc2)c1` (single isomer, unassigned; (+)) the value was 109 °C. `COC(=O)c1ccc(C(=O)Nc2cc3c4c(c2)CCCC4CCC3)s1` yielded a melting point of 221 to 222 °C.

`COc1cc2ncc(C#N)c(Nc3ccc(Cl)c4ccccc34)c2cc1OC`: the melting point is > 250 °C. For `CC1CCC(=NNc2ccccc2)c2ncc(C(=O)O)c(=O)n21` (single isomer, unassigned; (-)) the value was 255 to 256 °C. `Cc1ccc(C)c(OCCO)c1` gave a melting point of 45 to 48 °C.

With `C[C@@H](NC(=O)c1ccc(-c2ccc(Cl)cc2)o1)[C@](O)(Cn1cncn1)c1ccc(F)cc1F`, the melting point was in the range of 218 to 219 °C. As for `CC(=O)NC1(c2ccccc2)CCN(CCC(CN2C(=O)c3ccccc3C2=O)c2ccc(Cl)c(Cl)c2)CC1` (configuration not stated), the figure is 83 to 85 °C.

On to `CC(C)CC1CCCCc2c1oc(=O)c(C(c1ccccc1)C1CC1)c2O` (configuration not stated), for which the melting point is 164 to 167 °C. For `CCCOc1ccccc1-c1nc2cc(N)c(N)cc2c(=O)[nH]1` the value was 195 to 197 °C.

For `CC(C)(C)OC(=O)N1CCCN(c2ccnc3sc(C(N)=O)c(N)c23)CC1`, the melting point was 177 to 178 °C. With `O=C(O)CCSCC(=O)c1cc2sc(=O)[nH]c2cc1Cl`, the melting point fell in the range of 195 to 197 °C.

Turning to `CC(C)(C)NC(=O)[C@@H]1C[C@H](N2CCOCC2)CN1C(=O)OC(C)(C)C`, the melting point lay within 172 to 173 °C. For `COc1nc(-n2ncc(C#N)c2N)c(C(F)(F)F)cc1Cl` the value was 163 to 165 °C. Consider `CC1(c2nc(-c3ccc(Cl)cc3)c(CCC(=O)O)o2)CCCCC1`, for which the melting point lay within 138 to 139 °C.

Regarding `CC(=O)NC[C@H]1CN(c2ccc(N3CCC(F)(CCl)CC3)c(F)c2)C(=O)O1`, the melting point fell in the range of 158 to 160 °C. As for `CCCCCCN(CCCCCC)C(Nc1ccc(OC)cc1OC)=C1C(=O)COC1=O`, the figure is 96 to 98 °C. For `CCCCC(C)n1ncc(-c2ccc(S(C)(=O)=O)cc2)c(-c2ccc(F)cc2)c1=O` (configuration not stated) the value was 79 to 80 °C. For `Cc1c(-c2ccccc2)sc2nc(NCCNC(=O)CCN3CCN(C)CC3)[nH]c(=O)c12` the value was 235 to 245 °C; for `O=c1c(-c2ccccc2)ccc2n1CCc1sccc1-2`, 187 to 189 °C; for `Brc1ccc(Cn2cncn2)cc1`, 77 to 79 °C. For `CCC[C@H]1CC[C@H](c2ccc(OCC)c(C=O)c2)CC1`, the melting point is 32 °C. `CNc1nc(Nc2cccc(OCCNC(=O)OC(C)(C)C)c2)ncc1[N+](=O)[O-]` came in with a melting point of 193 °C. For `Cc1cc(Br)cnc1CCCCNc1ncc(Cc2ccn(Cc3ccccc3)c(=O)c2)c(=O)[nH]1` the value was 140 to 144 °C; for `O=C(c1ccc(-c2cnc3c(c2)N(Cc2ccccc2)CCN3)cc1)N1CCC(N2CCCC2)CC1`, 120 °C.

`CC(C)N1CCC(C2c3ccccc3C=Cc3ccccc32)CC1`: the melting point was 124 to 126 °C. For `N#Cc1c(-c2ccc(Cl)cc2)[nH]c([N+](=O)[O-])c1Br` the value was 180 to 185 °C; for `CC(=O)Nc1ccc(OC2SCC(OC(C)=O)C(OC(C)=O)C2OC(C)=O)cc1` (configuration not stated), 166 °C. In the case of `CCOC(=O)C(C)=CC=CC(C)=CC=CC=C(C)C=CC=C(C)C1OCC(C)(C)CO1`, the melting point was found to be 158 °C.

With `CN(C)CCOc1ccc2[nH]c(C(=O)N3CC(CCl)c4c3cc([N+](=O)[O-])c3cc(S(=O)(=O)NCCO)ccc43)cc2c1` (configuration not stated), the melting point fell in the range of 205 to 210 °C. As for `COc1ccc(-c2nc(N)c(C#N)nc2-c2ccc(=O)n(C(C)C)c2)cc1`, the figure is 244 °C; as for `CN(C(=O)N(C)c1ccc(CCl)cc1)c1ccc(CCl)cc1`, 72 to 73 °C; as for `COC(=O)C(=Cc1ccc(OCc2ccccc2)cc1)C(=O)OC`, 134 to 135 °C. `COc1cccc([N+](=O)[O-])c1N` showed a melting point of 67 to 68 °C.

The compound `Nc1ccc2c(c1)C(=O)C1(CCOC1=O)S2` (configuration not stated) returned a melting point of 187 to 190 °C. As for `CCOC(=O)c1nc2c(=O)[nH]c3cc(F)ccc3n2c1C`, the figure is > 250 °C; as for `O=C1C=C(O)C(=O)c2cc(F)ccc21`, 206 to 210 °C. As for `CCCCc1ncc(CC(Cc2cccs2)C(=O)O)n1Cc1ccc(C(=O)O)cc1` (configuration not stated), the figure is 175 °C; as for `CCOC(=O)c1c(CN(CC)CC)nc2sc3c(c2c1-c1ccc(OC)c(OC)c1)CCN(C(C)=O)C3`, 72 to 75 °C. For the compound `O=C(c1ccc(-n2cncn2)cc1)N1CCC(NCc2ccccc2)CC1`, the melting point was 137 to 138 °C. Regarding `CC1(C(=O)O)CCc2c(C(=O)c3ccc(Cl)cc3)cccc21` (configuration not stated), the melting point fell in the range of 146 to 150 °C.
